“And” between values parts separate entries of the source, which are not always exact repeats. Equal entries are not always repeated. Toxic doses and inconclusive results are not listed.

This assay has as its system B6C3F1 mice, intracerebral ependymoblastoma, median survival T/C. Put plainly: NCI In Vivo Anticancer Drug Screen. Data for tumor model Ependymoblastoma (intracerebral) in B6C3F1 mice. The following applies: endpoint: median survival time, higher = longer survival. As for the experimental part:
The antitumor activity of compounds was measured in mice bearing transplantable tumors. Survival or tumor size were measured and the results are expressed as the measurement made in the treated group (T) divided by the measurement made in the vehicle treated control group (C). The tumor model used in this assay is Ependymoblastoma (intracerebral) in B6C3F1 mice

[1] abbreviates: dose: 4.0 mg/kg/injection, schedule: Q01DX005 (ip), vehicle: Klucel (hydroxypropylcellulose) (HPC).
[2] abbreviates: dose: 4.0 mg/kg/injection, schedule: Q01DX005 (ip), vehicle: saline with Tween-80.
[3] abbreviates: dose: 8.0 mg/kg/injection, schedule: Q01DX005 (ip), vehicle: saline with Tween-80.
Setting [4] is: dose: 16.0 mg/kg/injection, schedule: Q01DX005 (ip), vehicle: saline with Tween-80.
Setting [5] is: dose: 64.0 mg/kg/injection, schedule: Q01DX005 (ip), vehicle: Klucel (hydroxypropylcellulose) (HPC).
Where [6] appears, read: dose: 20.0 mg/kg/injection, schedule: Q01DX001 (ip), vehicle: Klucel (hydroxypropylcellulose) (HPC).

Regarding `C[C@@H](CN1CC(=O)NC(=O)C1)N1CC(=O)NC(=O)C1`, the T/C runs as follows: under setting [1], 112 % of control and 120 % of control; under setting [2], 116 % of control and 117 % of control; (dose: 4.0 mg/kg/injection, schedule: Q01DX005 (ip), vehicle: water) 102 % of control; under setting [3], 108 % of control; (dose: 16.0 mg/kg/injection, schedule: Q01DX005 (ip), vehicle: Klucel (hydroxypropylcellulose) (HPC)) 108 % of control and 111 % of control; under setting [4], 114 % of control and 118 % of control. The T/C (dose: 16.0 mg/kg/injection, schedule: Q01DX005 (ip), vehicle: water) is 105 % of control; the T/C (dose: 32.0 mg/kg/injection, schedule: Q01DX005 (ip), vehicle: saline) was 102 % of control and 114 % of control; the T/C (dose: 32.0 mg/kg/injection, schedule: Q01DX005 (oral), vehicle: saline) was 109 % of control; the T/C under setting [5] was 107 % of control and 115 % of control; the T/C (dose: 64.0 mg/kg/injection, schedule: Q01DX005 (ip), vehicle: saline with Tween-80) is 114 % of control; the T/C (dose: 64.0 mg/kg/injection, schedule: Q01DX005 (ip), vehicle: saline) was 123 % of control. Also, the T/C is 108 % of control (dose: 64.0 mg/kg/injection, schedule: Q01DX005 (ip), vehicle: water); 120 % of control (dose: 128.0 mg/kg/injection, schedule: Q01DX005 (ip), vehicle: saline); 103 % of control (dose: 128.0 mg/kg/injection, schedule: Q#A X002 (ip), vehicle: saline); 107 % of control and 111 % of control and 113 % of control (dose: 256.0 mg/kg/injection, schedule: Q01DX001 (ip), vehicle: saline); 109 % of control and 123 % of control and 124 % of control (dose: 256.0 mg/kg/injection, schedule: Q01DX001 (oral), vehicle: saline); 112 % of control and 122 % of control (dose: 256.0 mg/kg/injection, schedule: Q01DX005 (ip), vehicle: Klucel (hydroxypropylcellulose) (HPC)). Also, the T/C (dose: 256.0 mg/kg/injection, schedule: Q01DX005 (ip), vehicle: saline) is 120 % of control and 122 % of control; the T/C (dose: 256.0 mg/kg/injection, schedule: Q#A X002 (ip), vehicle: saline) was 113 % of control; the T/C (dose: 512.0 mg/kg/injection, schedule: Q01DX001 (ip), vehicle: saline) was 109 % of control and 118 % of control; the T/C (dose: 512.0 mg/kg/injection, schedule: Q01DX001 (oral), vehicle: saline) is 119 % of control and 121 % of control; the T/C (dose: 512.0 mg/kg/injection, schedule: Q#A X002 (ip), vehicle: saline) was 121 % of control; the T/C (dose: 1024.0 mg/kg/injection, schedule: Q01DX001 (ip), vehicle: saline) was 114 % of control and 121 % of control. For the same molecule, the T/C reads like this: (dose: 1024.0 mg/kg/injection, schedule: Q01DX001 (oral), vehicle: saline) 119 % of control; (dose: 1024.0 mg/kg/injection, schedule: Q#A X002 (ip), vehicle: saline) 121 % of control; (dose: 2048.0 mg/kg/injection, schedule: Q01DX001 (oral), vehicle: saline) 102 % of control and 121 % of control.

`CNNCc1ccc(C(=O)NC(C)C)cc1`: the T/C (dose: 32.0 mg/kg/injection, schedule: Q01DX005 (ip), vehicle: Klucel (hydroxypropylcellulose) (HPC)) was 156 % of control and the T/C under setting [5] is 155 % of control.

As for `S=P(N1CC1)(N1CC1)N1CC1.[Cl-].[Cl-].[NH2-].[NH2-].[Pt+4]`, the T/C by setting is: (dose: 3.0 mg/kg/injection, schedule: Q01DX005 (ip), vehicle: dextrose) 122 % of control; (dose: 6.0 mg/kg/injection, schedule: Q01DX005 (ip), vehicle: dextrose) 155 % of control.

Take `O=NN(CCCl)C(=O)NC1CCC(=O)NC1=O` (stereo not drawn): the T/C (dose: 0.5 mg/kg/injection, schedule: Q01DX005 (ip), vehicle: Klucel (hydroxypropylcellulose) (HPC)) is 91 % of control; the T/C (dose: 0.5 mg/kg/injection, schedule: Q01DX005 (ip), vehicle: saline with Tween-80) is 109 % of control; the T/C (dose: 1.0 mg/kg/injection, schedule: Q01DX005 (ip), vehicle: Klucel (hydroxypropylcellulose) (HPC)) was 114 % of control; the T/C (dose: 1.0 mg/kg/injection, schedule: Q01DX005 (ip), vehicle: suspension in saline) is 124 % of control; the T/C (dose: 1.0 mg/kg/injection, schedule: Q01DX009 (ip), vehicle: saline with Tween-80) is 241 % of control; the T/C (dose: 2.0 mg/kg/injection, schedule: Q01DX005 (ip), vehicle: saline with Tween-80) was 238 % of control. The T/C was 241 % of control (dose: 2.0 mg/kg/injection, schedule: Q01DX009 (ip), vehicle: saline with Tween-80); 309 % of control (dose: 2.59 mg/kg/injection, schedule: Q01DX005 (ip), vehicle: Klucel (hydroxypropylcellulose) (HPC)); 154 % of control (dose: 4.0 mg/kg/injection, schedule: Q01DX001 (ip), vehicle: saline + alcohol); 207 % of control under setting [1]; 396 % of control under setting [2]; 179 % of control and 236 % of control and 260 % of control (dose: 4.0 mg/kg/injection, schedule: Q01DX005 (ip), vehicle: suspension in saline). Also, the T/C (dose: 4.32 mg/kg/injection, schedule: Q01DX005 (ip), vehicle: Klucel (hydroxypropylcellulose) (HPC)) was 357 % of control; the T/C (dose: 5.0 mg/kg/injection, schedule: Q01DX001 (ip), vehicle: DMSO) was 112 % of control; the T/C (dose: 6.0 mg/kg/injection, schedule: Q01DX005 (ip), vehicle: suspension in saline) is 262 % of control and 267 % of control; the T/C (dose: 7.2 mg/kg/injection, schedule: Q01DX001 (ip), vehicle: Klucel (hydroxypropylcellulose) (HPC)) was 187 % of control; the T/C (dose: 7.2 mg/kg/injection, schedule: Q01DX005 (ip), vehicle: Klucel (hydroxypropylcellulose) (HPC)) is 357 % of control; the T/C (dose: 8.0 mg/kg/injection, schedule: Q01DX001 (ip), vehicle: saline + alcohol) is 229 % of control. Moreover, the T/C was 274 % of control (dose: 8.0 mg/kg/injection, schedule: Q01DX005 (ip), vehicle: Klucel (hydroxypropylcellulose) (HPC)); 172 % of control under setting [3]; 205 % of control (dose: 8.0 mg/kg/injection, schedule: Q01DX005 (ip), vehicle: suspension in saline); 226 % of control (dose: 8.3 mg/kg/injection, schedule: Q01DX001 (ip), vehicle: DMSO); 175 % of control (dose: 10.0 mg/kg/injection, schedule: Q07DX003 (ip), vehicle: saline); 252 % of control (dose: 10.0 mg/kg/injection, schedule: Q07DX003 (ip), vehicle: suspension in saline). The T/C was 363 % of control (dose: 12.0 mg/kg/injection, schedule: Q01DX001 (ip), vehicle: Klucel (hydroxypropylcellulose) (HPC)); 357 % of control (dose: 12.0 mg/kg/injection, schedule: Q01DX005 (ip), vehicle: Klucel (hydroxypropylcellulose) (HPC)); 367 % of control (dose: 13.8 mg/kg/injection, schedule: Q01DX001 (ip), vehicle: DMSO); 324 % of control (dose: 16.0 mg/kg/injection, schedule: Q01DX001 (ip), vehicle: saline + alcohol); 114 % of control under setting [4]; 363 % of control under setting [6]. Further, the T/C is, setting by setting: (dose: 20.0 mg/kg/injection, schedule: Q07DX003 (ip), vehicle: saline) 99 % of control; (dose: 20.0 mg/kg/injection, schedule: Q07DX003 (ip), vehicle: suspension in saline) 252 % of control; (dose: 23.0 mg/kg/injection, schedule: Q01DX001 (ip), vehicle: DMSO) 367 % of control; (dose: 32.0 mg/kg/injection, schedule: Q01DX001 (ip), vehicle: saline + alcohol) 324 % of control; (dose: 32.0 mg/kg/injection, schedule: Q01DX001 (ip), vehicle: suspension in saline) 120 % of control; (dose: 33.3 mg/kg/injection, schedule: Q01DX001 (ip), vehicle: Klucel (hydroxypropylcellulose) (HPC)) 90 % of control. The T/C (dose: 38.4 mg/kg/injection, schedule: Q01DX001 (ip), vehicle: DMSO) is 366 % of control.

On to `S=c1nc[nH]c2nc[nH]c12`, for which the T/C was 92 % of control and 99 % of control and 101 % of control (dose: 10.0 mg/kg/injection, schedule: Q01DX001 (ip), vehicle: Klucel (hydroxypropylcellulose) (HPC)); 98 % of control and 100 % of control and 107 % of control under setting [6]; 100 % of control and 103 % of control (2×) (dose: 40.0 mg/kg/injection, schedule: Q01DX001 (ip), vehicle: Klucel (hydroxypropylcellulose) (HPC)); 95 % of control and 103 % of control and 107 % of control (dose: 80.0 mg/kg/injection, schedule: Q01DX001 (ip), vehicle: Klucel (hydroxypropylcellulose) (HPC)); 100 % of control and 101 % of control and 116 % of control (dose: 160.0 mg/kg/injection, schedule: Q01DX001 (ip), vehicle: Klucel (hydroxypropylcellulose) (HPC)).

(Values after PubChem BioAssay AID226 (DTP/NCI, 2004).)
